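Cultured in 96-well plates, cells were exposed to test compound for 48 hours across five concentrations. TGI: total growth inhibition.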
Legend:
Assay in all cases: DTP human tumour cell line panel, 48 h
786-0 renal = system: 786-0 renal
OVCAR-4 ovarian = system: OVCAR-4 ovarian
A498 renal = system: A498 renal
SN12C renal = system: SN12C renal
OVCAR-5 ovarian = system: OVCAR-5 ovarian
MDA-N = system: MDA-N
BT-549 breast = system: BT-549 breast
ACHN renal = system: ACHN renal
TK-10 renal = system: TK-10 renal
NCI-H460 lung = system: NCI-H460 lung
U251 CNS = system: U251 CNS
EKVX NSCLC = system: EKVX NSCLC
HOP-92 NSCLC = system: HOP-92 NSCLC
SK-MEL-28 melanoma = system: SK-MEL-28 melanoma
HCC-2998 colon = system: HCC-2998 colon
A549 NSCLC = system: A549 NSCLC
SF-539 CNS = system: SF-539 CNS
OVCAR-3 ovarian = system: OVCAR-3 ovarian
OVCAR-8 ovarian = system: OVCAR-8 ovarian
SNB-19 CNS = system: SNB-19 CNS
MDA-MB-231 breast = system: MDA-MB-231 breast
MCF7 breast = system: MCF7 breast
HL-60(TB) leukemia = system: HL-60(TB) leukemia
HCT-116 colon = system: HCT-116 colon
NCI/ADR-RES ovarian = system: NCI/ADR-RES ovarian
SK-OV-3 ovarian = system: SK-OV-3 ovarian
SNB-75 CNS = system: SNB-75 CNS
CAKI-1 renal = system: CAKI-1 renal
UACC-62 melanoma = system: UACC-62 melanoma
MDA-MB-435 = system: MDA-MB-435
KM12 colon = system: KM12 colon
HS 578T breast = system: HS 578T breast
UACC-257 melanoma = system: UACC-257 melanoma
SF-268 CNS = system: SF-268 CNS
RXF 393 renal = system: RXF 393 renal
MALME-3M melanoma = system: MALME-3M melanoma
T-47D breast = system: T-47D breast
PC-3 prostate = system: PC-3 prostate
CCRF-CEM leukemia = system: CCRF-CEM leukemia
SR leukemia = system: SR leukemia
HCT-15 colon = system: HCT-15 colon
SK-MEL-5 melanoma = system: SK-MEL-5 melanoma
NCI-H226 lung = system: NCI-H226 lung
HT29 colon = system: HT29 colon
NCI-H23 lung = system: NCI-H23 lung
SK-MEL-2 melanoma = system: SK-MEL-2 melanoma
HOP-62 NSCLC = system: HOP-62 NSCLC
UO-31 renal = system: UO-31 renal
DU-145 prostate = system: DU-145 prostate
COLO 205 colon = system: COLO 205 colon
NCI-H522 lung = system: NCI-H522 lung
SF-295 CNS = system: SF-295 CNS
SW-620 colon = system: SW-620 colon
M14 melanoma = system: M14 melanoma
IGROV1 ovarian = system: IGROV1 ovarian
K-562 leukemia = system: K-562 leukemia
RPMI-8226 leukemia = system: RPMI-8226 leukemia
MOLT-4 leukemia = system: MOLT-4 leukemia
LOX IMVI melanoma = system: LOX IMVI melanoma

How did the TGI (786-0 renal) turn out when `O=C(c1cc(Cl)cc(Cl)c1)N(C(=S)OC12CC3CC(CC(C3)C1)C2)c1ccccc1` was run?
Its TGI is over 100 µM.

And the TGI (OVCAR-4 ovarian)?
The TGI was over 100 µM.

And the TGI (A498 renal)?
Its TGI is over 100 µM.

What about the TGI (SN12C renal) of the same compound?
Its TGI is over 100 µM.

What about the TGI (OVCAR-5 ovarian) of the same compound?
The TGI was over 100 µM.

And the TGI (MDA-N)?
The TGI was over 100 µM.

What about the TGI (BT-549 breast) of the same compound?
The TGI was over 100 µM.

What about the TGI (ACHN renal) of the same compound?
Its TGI is over 100 µM.

What about the TGI (TK-10 renal) of the same compound?
The TGI was over 100 µM.

And the TGI (NCI-H460 lung)?
The TGI was over 100 µM.

What about the TGI (U251 CNS) of the same compound?
Its TGI is over 100 µM.

What about the TGI (EKVX NSCLC) of the same compound?
The TGI was 69.1 µM.

And the TGI (HOP-92 NSCLC)?
The TGI was over 100 µM.

And the TGI (SK-MEL-28 melanoma)?
The TGI was over 100 µM.

And the TGI (HCC-2998 colon)?
The TGI was over 100 µM.

What about the TGI (A549 NSCLC) of the same compound?
The TGI was over 100 µM.

And the TGI (SF-539 CNS)?
Its TGI is over 100 µM.

What about the TGI (OVCAR-3 ovarian) of the same compound?
Its TGI is over 100 µM.

And the TGI (OVCAR-8 ovarian)?
Its TGI is over 100 µM.

And the TGI (SNB-19 CNS)?
The TGI was over 100 µM.

And the TGI (MDA-MB-231 breast)?
Its TGI is over 100 µM.

And the TGI (MCF7 breast)?
The TGI was over 100 µM.

And the TGI (HL-60(TB) leukemia)?
Its TGI is 84.5 µM.

And the TGI (HCT-116 colon)?
Its TGI is over 100 µM.

And the TGI (NCI/ADR-RES ovarian)?
Its TGI is over 100 µM.

What about the TGI (SK-OV-3 ovarian) of the same compound?
Its TGI is over 100 µM.

And the TGI (SNB-75 CNS)?
Its TGI is over 100 µM.

And the TGI (CAKI-1 renal)?
The TGI was over 100 µM.

What about the TGI (UACC-62 melanoma) of the same compound?
The TGI was over 100 µM.

And the TGI (MDA-MB-435)?
The TGI was over 100 µM.

And the TGI (KM12 colon)?
Its TGI is over 100 µM.

What about the TGI (HS 578T breast) of the same compound?
The TGI was over 100 µM.

What about the TGI (UACC-257 melanoma) of the same compound?
Its TGI is over 100 µM.

And the TGI (SF-268 CNS)?
Its TGI is over 100 µM.

And the TGI (RXF 393 renal)?
Its TGI is over 100 µM.

What about the TGI (MALME-3M melanoma) of the same compound?
Its TGI is over 100 µM.

And the TGI (T-47D breast)?
Its TGI is over 100 µM.

And the TGI (PC-3 prostate)?
Its TGI is over 100 µM.

And the TGI (CCRF-CEM leukemia)?
The TGI was 49.9 µM.

And the TGI (SR leukemia)?
The TGI was over 100 µM.

What about the TGI (HCT-15 colon) of the same compound?
Its TGI is over 100 µM.

And the TGI (SK-MEL-5 melanoma)?
The TGI was over 100 µM.

What about the TGI (NCI-H226 lung) of the same compound?
Its TGI is over 100 µM.

What about the TGI (HT29 colon) of the same compound?
Its TGI is over 100 µM.

And the TGI (NCI-H23 lung)?
Its TGI is over 100 µM.

And the TGI (SK-MEL-2 melanoma)?
Its TGI is 41.6 µM.

What about the TGI (HOP-62 NSCLC) of the same compound?
Its TGI is over 100 µM.

What about the TGI (UO-31 renal) of the same compound?
The TGI was 82.8 µM.

And the TGI (DU-145 prostate)?
The TGI was over 100 µM.

What about the TGI (COLO 205 colon) of the same compound?
Its TGI is 35.4 µM.

What about the TGI (NCI-H522 lung) of the same compound?
Its TGI is 62.3 µM.

What about the TGI (SF-295 CNS) of the same compound?
Its TGI is over 100 µM.

And the TGI (SW-620 colon)?
The TGI was over 100 µM.

And the TGI (M14 melanoma)?
Its TGI is 56.7 µM.

How did the TGI (786-0 renal) turn out when `COC(=O)C1=Nc2c(C)nn(-c3ccccc3)c2N=C(c2ccc(C)cc2)C1` was run?
Its TGI is over 10 µM.

What about the TGI (OVCAR-4 ovarian) of the same compound?
The TGI was over 10 µM.

What about the TGI (SN12C renal) of the same compound?
The TGI was over 10 µM.

What about the TGI (MDA-N) of the same compound?
Its TGI is over 10 µM.

And the TGI (BT-549 breast)?
The TGI was over 10 µM.

And the TGI (ACHN renal)?
The TGI was over 10 µM.

What about the TGI (TK-10 renal) of the same compound?
The TGI was over 10 µM.

What about the TGI (U251 CNS) of the same compound?
Its TGI is over 10 µM.

What about the TGI (HOP-92 NSCLC) of the same compound?
Its TGI is over 10 µM.

What about the TGI (SK-MEL-28 melanoma) of the same compound?
The TGI was over 10 µM.

What about the TGI (HCC-2998 colon) of the same compound?
Its TGI is over 10 µM.

And the TGI (A549 NSCLC)?
The TGI was over 10 µM.

And the TGI (SF-539 CNS)?
Its TGI is over 10 µM.

What about the TGI (OVCAR-3 ovarian) of the same compound?
Its TGI is over 10 µM.

And the TGI (OVCAR-8 ovarian)?
The TGI was over 10 µM.

What about the TGI (SNB-19 CNS) of the same compound?
The TGI was over 10 µM.

What about the TGI (MDA-MB-231 breast) of the same compound?
The TGI was over 10 µM.

And the TGI (MCF7 breast)?
Its TGI is over 10 µM.

What about the TGI (HL-60(TB) leukemia) of the same compound?
The TGI was over 10 µM.

And the TGI (HCT-116 colon)?
The TGI was over 10 µM.

And the TGI (NCI/ADR-RES ovarian)?
The TGI was over 10 µM.

And the TGI (SK-OV-3 ovarian)?
The TGI was over 10 µM.

What about the TGI (SNB-75 CNS) of the same compound?
Its TGI is over 10 µM.

What about the TGI (IGROV1 ovarian) of the same compound?
Its TGI is over 10 µM.

What about the TGI (CAKI-1 renal) of the same compound?
The TGI was over 10 µM.

What about the TGI (UACC-62 melanoma) of the same compound?
The TGI was over 10 µM.

What about the TGI (MDA-MB-435) of the same compound?
The TGI was over 10 µM.

And the TGI (KM12 colon)?
Its TGI is over 10 µM.

What about the TGI (HS 578T breast) of the same compound?
The TGI was over 10 µM.

And the TGI (UACC-257 melanoma)?
The TGI was over 10 µM.

And the TGI (SF-268 CNS)?
Its TGI is over 10 µM.

And the TGI (MALME-3M melanoma)?
Its TGI is over 10 µM.

What about the TGI (T-47D breast) of the same compound?
Its TGI is over 10 µM.

And the TGI (PC-3 prostate)?
The TGI was over 10 µM.

And the TGI (K-562 leukemia)?
The TGI was over 10 µM.

What about the TGI (SR leukemia) of the same compound?
Its TGI is over 10 µM.

What about the TGI (HCT-15 colon) of the same compound?
The TGI was over 10 µM.

And the TGI (SK-MEL-5 melanoma)?
Its TGI is over 10 µM.

What about the TGI (HT29 colon) of the same compound?
Its TGI is over 10 µM.

What about the TGI (NCI-H23 lung) of the same compound?
Its TGI is over 10 µM.

And the TGI (RPMI-8226 leukemia)?
Its TGI is over 10 µM.

And the TGI (HOP-62 NSCLC)?
Its TGI is over 10 µM.

And the TGI (MOLT-4 leukemia)?
Its TGI is over 10 µM.

And the TGI (LOX IMVI melanoma)?
Its TGI is over 10 µM.

And the TGI (DU-145 prostate)?
Its TGI is over 10 µM.

And the TGI (COLO 205 colon)?
The TGI was over 10 µM.

And the TGI (NCI-H522 lung)?
Its TGI is over 10 µM.

What about the TGI (SF-295 CNS) of the same compound?
Its TGI is over 10 µM.

What about the TGI (SW-620 colon) of the same compound?
Its TGI is over 10 µM.

And the TGI (M14 melanoma)?
The TGI was over 10 µM.
